Data from patent US20140205586A1, “CONTROL OF BIOFILM FORMATION” (THE REGENTS OF THE UNIVERSITY OF MICHIGAN, priority 2010, published 2014).

Tests used:
S. maltophilia = assay: Biofilm formation, crystal violet staining in 96-well plates; format: cell-based; settings: 400 μM dATP
Description: (§1) Overnight LB-grown culture was diluted 100 times with 10% LB medium, and 100 μL of the dilution was inoculated into each well of 96-well plates. dATP, dGTP, DNase I, or apyrase was added into wells to result in the desired concentrations. An equivalent volume of 10% LB medium was added into wells as control. Plates were covered with lids and incubated at 30° C. for 16 hours before optical density (OD) was measured at 600 nm for the record of growth. Fifteen microliters of 0.1% crystal violet solution was added into each well for crystal violet staining (CV staining) After 15 min of staining, each well was washed gently three times with 100 μl of PBS buffer. Supernatant in each well was removed and 100 μl of 75% ethanol was added to dissolve crystal violet before measuring optical density at 600 nm (CV OD) for the quantification of biofilm biomass.

S. aureus = assay: as above; format: cell-based; settings: 400 μM dATP
Description: as §1

Acinetobacter [1] = assay: Bacterial initial attachment assay; format: cell-based; settings: 125 μM dATP; visualized at 2 h, 4 h and 8 h post-treatment
Description: Bacterial initial attachment assay: 1% of an overnight culture was inoculated into the wells of 96-well glass bottom microplate containing 100 μl of 10% LB media, after predetermined incubation time, suspension was removed from each well and rinsed with PBS buffer for three times then biofilm samples were stained with LIVE/DEAD BacLight Bacterial Viability Kits (cat. L7007, Invitrogen) following the instructions in the manual. All microscopic observations and image acquisitions were performed with Olympus IX71 equipped with detectors and filter sets for monitoring of SYTO-9 and propidium iodide (PI). Images were obtained using a 60× objective.

Acinetobacter cultures = assay: CytoTox-Glo cytotoxicity assay (programmed cell death); format: cell-based; settings: 24 h post-treatment
Text: Cytotoxicity Assay: Planktonic cells and biofilm cells were collected as described above and washed with PBS buffer three times. Cell concentration was adjusted to 1-1.5×10^8 CFU/ml with PBS buffer and samples were ready for dead-cell protease activity, which had been released from cells that had lost membrane integrity, by using CytoTox-Glo™ Cytotoxicity Assay (Cat. G9291. Promega. Madison, Wis.) following the instructions by the manufacturer.

Acinetobacter [2] = assay: Extracellular DNA (eDNA) extraction and quantification; format: cell-based
Description: DNA extraction and quantification: Biofilms were developed as mentioned above for 16 hours and biofilm cells were resuspended with 0.9% NaCl solution, homogenized for 1 min and utilized for eDNA extraction. Planktonic cells were incubated at 30° C. for 8 hours with a 1% of inoculation and cells were washed with fresh 10% of LB broth three times before resuspension in the same volume of 10% of LB broth or 10% LB broth supplemented with 400 μM of dATP. The cells solutions were then incubated at 30° C. for another 2 hour and were ready for eDNA extraction. Biofilm cells suspension and planktonic cultures were treated as previously reported (27) for DNA extraction. Briefly, cell solution was treated with Dispersin B (20 μg/ml) at 37° C. for 30 min followed by treatment of proteinase K (5 μg/ml) for another 30 min at 37° C. Treated cell solution was filtered through a 0.2 μm syringe filter (PES, Water & Process Technologies), elute was used to extract the extracellular DNA by using ethanol precipitation. DNA was dissolved in 50 μl of sterile MilliQ water and the concentration of DNA was measured by using the PicoGreen dsDNA Quantitation Kit (Molecular Probes, Invitrogen).

E. coli = assay: Biofilm formation, crystal violet staining in 96-well plates; format: cell-based; settings: 400 μM dATP
Description: as §1
(§2) For visualization of biofilm structure (FIG. 2), biofilms were developed as described above. After 16 hours of incubation, supernatant was removed from each well and 100 μl of PBS buffer containing 0.1 mM SYTO-9 green, 10 mM Propidium Iodide (PI) was added for staining in dark for 15 min. Cell images were acquired with a Perkin Elmer UltraView confocal microscope system equipped with an Argon-Krypton laser. Images were taken with an oil immersion 60× objective lens in two channels (488 nm excitation for SYTO9 and 568 nm excitation for PI). […]

[3] = tested on: Acinetobacter baumannii ATCC 17978; assay: Bacterial adherence assay on human bronchial epithelial NCI-H292 cells; format: cell-based
Description: Bacterial adherence assay was performed as described ([…]; herein incorporated by reference in its entirety). Human bronchial epithelial cell line NCI-H292 (ATCC CRL-1848; American Tissue Culture Collection, Rockville, Md., USA) were cultured in a petri dish at 37° C. in RPMI 1640 medium (Gibco BRL, Grand Island, N.Y., USA), supplemented with 25 mM HEPES, 2 mM L-glutamine, penicillin G 100,000 U/L, streptomycin 50 mg/L and 10% (v/v) of fetal bovine serum (Gibco BRL), in a humidified atmosphere containing 5% (v/v) of CO2.
When NCI-H292 cells covered about 80% of the bottom of petri dish, the medium was replaced with 0.25% trypsin-EDTA (1689649, MP Biomedicals, Solon Ohio) and the petri dish was incubated at 37° C. for 10 min. NCI-H292 Cells were collected by cell scraper and washed with fresh RPMI 1640 medium three time by centrifuging at 300×g for 3 min. Washed cells were adjusted to the concentration of 1×10^5 cells per ml with fresh RPMI 1640 and 2 ml of cell solution were transferred to each well of a 12-well plate, which contained a 13-mm-diameter plastic coverslip (Thermanox, Nunc, Rochester, N.Y., USA) in each well. The cells were incubated at 37° C. for about 3 days until cells covered about 90% of coverslip and were then washed with phosphate buffered saline (PBS) three times. Acinetobacter baumannii ATCC 17978 grown overnight in Luria Bertani (LB) medium were collected and washed three times with fresh RPMI 1640 medium by centrifuging at 6,000 rpm for 3 min. Bacterial cells were adjusted to the concentration of 1×10^8 CFU/mL (OD600=0.05) and mixed with reagents (400 μM of dATP, or 200 mU/ml of apyrase) as necessary. Each cell monolayer was infected with 1 mL of bacterial suspension and incubated for 60 min at 37° C. in a CO2 5% v/v atmosphere. For damaged cell assays, NCI-H292 cells (around 5%) in the central area of plastic coverslips were damaged by tip of a knife before the infection performed. […] The number of bacteria adhering to 100 cells was determined. […]

Acinetobacter biofilms = assay: Biofilm biomass, crystal violet staining in 96-well plates; format: cell-based; settings: 16 hours incubation
Description: as §1, §2

Acinetobacter baumannii = Acinetobacter baumannii adherence in mouse wound infection model; format: in vivo, C57BL/6 mice; settings: burn wound sites treated with 400 mU/mL apyrase during inoculation
Description: Female pathogen-free C57BL/6 mice (Harlan, Indianapolis, Ind.), 12 weeks old, weighing approximately 20-23 grams were used in all experiments. Mice were housed in standard cages at the University Laboratory Animals Facility and were allowed to acclimate for 7 days after delivery prior to the experiment. The animals were kept on a 12 hour light cycle and were provided with rodent chow (LabDiet 5001, PMI Int'l., Richmond, Ind.) and water ad libitum throughout the study.
Pentobarbital (Nembutal, Ovation Pharmaceuticals, Inc., Deerfield, Ill., manufactured by Hospira, Lake Forest, Ill.) was administered intraperatonially (50 mg/kg IP) for anesthesia. During the study, all mice were singly housed and all received 0.1 mg/kg buprenorphine (Buprenex; Reckitt Benckiser Pharmaceuticals Inc., Richmond, Va.) subcutaneously (SQ) twice daily for post-burn pain control.
The skin over the lumbrosacral and back region was clipped using a 35-W model 5-55E electrical clipper (Oyster-Golden A-S, Head no. 80, blade size 40). Depilatory cream (Nair® lotion) was applied for about 1.5 minutes, then wiped off with a damp paper towel. Skin was rinsed under the faucet in lukewarm water and then blotted dry.
The first buprenorphine dose (67 ul/20 g, 83 ul/25 g mouse or 0.1 ug/g) was administered SQ under the skin of the upper back.
All 8 mice were burned. […]

Compound | biofilm formation (S. maltophilia) | biofilm formation (S. aureus) | rates of attachment in initial biofilm formation (Acinetobacter [1]) | programmed cell death (Cytotox-glo) (Acinetobacter cultures; biofilm form) | programmed cell death (Cytotox-glo) (Acinetobacter cultures; planktonic form) | extracellular DNA (eDNA) release (Acinetobacter [2]; biofilm cultures, more pronounced effect than in planktonic) | extracellular DNA (eDNA) release (Acinetobacter [2]; planktonic cultures) | biofilm formation (E. coli) | aggregate formation on human bronchial epithelial cells ([3]; 400 μM dATP in media) | increase of A. baumannii adherence to human bronchial epithelial cells ([3]; 400 μM dATP in media, 1 hour after incubation) | biofilm biomass (Acinetobacter biofilms) | adherence during initial stages of biofilm formation, cell count per gram of skin tissue (Acinetobacter baumannii) | effect on increased bacterial adherence (dATP or damaged cells) ([3]; Apyrase 200 mU/ml)
Nc1ncnc2c1ncn2[C@H]1C[C@H](O)[C@@H](COP(=O)(O)OP(=O)(O)OP(=O)(O)O)O1 [dATP, deoxyadenosine triphosphate] | increased biofilm formation | increased biofilm formation | accelerated rates of attachment | increased levels of programmed cell death | increased levels of programmed cell death | Stimulation of extracellular DNA (eDNA) | Stimulation of extracellular DNA (eDNA) | increased biofilm formation | promoted aggregate formation | about 100 fold | stimulated biofilm biomass | – | –
apyrase | – | – | – | – | – | – | – | – | – | – | reduced biomass | decreased adherence | completely arrested
